Reference: article PMC8846605 (European journal of medicinal chemistry, 2021)
Blank lines part the entries; values can stand above or below the compound they belong to.

Key:
[1] = biological target: eIF4E (GST-eIF4E) / fluorescein-labelled eIF4G peptide (Homo sapiens, UniProt P06730); assay: Fluorescence polarization assay for displacement of eIF4G peptide from eIF4E; format: binding; settings: three concentrations: 33, 100 and 300 μM
MCF7 cells = assay: CS-BLI cell viability assay, MCF7; format: cell-based
eIF4E = eIF4E (Homo sapiens, UniProt P06730); assay: eIF4E degradation in HEK293T cells by immunoblotting; format: cell-based; settings: 0.1-10 μM for 24 h, and 1 μM for 0.5 h to 24 h
Chain of eIF4E (P06730 whole entry): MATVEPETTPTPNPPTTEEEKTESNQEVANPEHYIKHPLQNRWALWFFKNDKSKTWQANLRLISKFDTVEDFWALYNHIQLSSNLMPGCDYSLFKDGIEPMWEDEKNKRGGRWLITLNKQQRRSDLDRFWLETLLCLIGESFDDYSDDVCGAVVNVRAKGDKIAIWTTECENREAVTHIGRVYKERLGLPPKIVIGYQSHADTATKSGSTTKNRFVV

Kelly cells proteome = assay: Global quantitative proteomics in Kelly cells; format: cell-based, human; settings: 1 μM, 5 hours, relative to DMSO
GB1-eIF4E = GB1-eIF4E (Homo sapiens, UniProt P06730); assay: Solution NMR titration; settings: 15N-labelled GB1-eIF4E 100 μM, compound 50, 100 and 300 μM
Chain of GB1-eIF4E (P06730 whole entry): as above

Cereblon (CRBN) = Cereblon (CRBN) (Homo sapiens, UniProt Q96SW2); assay: Cellular Cereblon engagement assay; format: cell-based
Chain of Cereblon (CRBN) (Q96SW2 whole entry): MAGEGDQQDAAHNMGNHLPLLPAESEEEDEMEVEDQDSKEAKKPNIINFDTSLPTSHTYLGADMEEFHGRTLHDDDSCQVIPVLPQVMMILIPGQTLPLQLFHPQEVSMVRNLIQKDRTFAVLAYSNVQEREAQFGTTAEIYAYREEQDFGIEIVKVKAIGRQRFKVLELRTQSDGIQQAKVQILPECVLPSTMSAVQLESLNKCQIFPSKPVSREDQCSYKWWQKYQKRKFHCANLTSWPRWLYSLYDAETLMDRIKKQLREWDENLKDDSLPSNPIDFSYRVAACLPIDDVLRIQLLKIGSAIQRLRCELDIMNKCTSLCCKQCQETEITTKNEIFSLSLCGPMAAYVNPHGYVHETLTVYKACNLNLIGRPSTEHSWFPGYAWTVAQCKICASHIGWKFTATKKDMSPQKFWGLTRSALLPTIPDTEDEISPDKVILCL

Chain of eIF4E (GST-eIF4E) / fluorescein-labelled eIF4G peptide (P06730 whole entry): as the sequence (P06730 whole entry) above

SMILES: O=C(COc1cccc2c1C(=O)N(C1CCC(=O)NC1=O)C2=O)NCCCCNC(=O)Cc1sc(N/N=C(\Cc2ccccc2[N+](=O)[O-])C(=O)O)nc1-c1ccc(Cl)c(Cl)c1 (centres unmarked) [d4E-1]
displacement of the 4G peptide compared with 4EGI-1 [1]: displaced the 4G peptide in a similar manner

decrease in viability (IC50) at 72 h as compared to 24 h (MCF7 cells): 2 fold
SMILES: O=C(O)C(Cc1ccccc1[N+](=O)[O-])=NNc1nc(-c2ccc(Cl)c(Cl)c2)cs1 [4EGI-1, reference compound]

SMILES: C/C(=N\Nc1nc(-c2ccc(Cl)c(Cl)c2)c(CC(=O)NCCNc2cccc3c2C(=O)N(C2CCC(=O)NC2=O)C3=O)s1)C(=O)OCOC(=O)C(C)(C)C (centres unmarked) [d4E-6]
degradation of eIF4E by immunoblotting (eIF4E): neither experiment showed significant degradation of eIF4E

SMILES: C/C(=N\Nc1nc(-c2ccc(-c3ccccc3)cc2)cs1)C(=O)NCCCCNc1cccc2c1C(=O)N(C1CCC(=O)NC1=O)C2=O (centres unmarked) [d4E-2]
change in protein expression, IMiD neo-substrates (Kelly cells proteome): downregulation of C2H2 zinc finger targets, SALL4, ZNF692 and ZNF827

SMILES: C/C(=N\Nc1nc(-c2ccc(-c3ccccc3)cc2)cs1)C(=O)NCCNc1cccc2c1C(=O)N(C1CCC(=O)NC1=O)C2=O (centres unmarked) [d4E-4]
chemical shift perturbations (CSPs) on titration (GB1-eIF4E): Significant CSPs were observed in both cases at the binding interface
degradation of eIF4E by immunoblotting (eIF4E): neither experiment showed significant degradation of eIF4E

decrease in viability (IC50) at 72 h as compared to 24 h (MCF7 cells): more than 3 fold
SMILES: O=C(O)/C(Cc1ccccc1[N+](=O)[O-])=N\Nc1nc(-c2ccc(-c3ccccc3)cc2)cs1 [i4EG-BiP]

fold less active than d4E-2 in cellular CRBN engagement (Cereblon (CRBN)): approximately 8 fold
SMILES: O=C1CCC(N2C(=O)c3cccc(NCCCCNC(=O)/C(=N\Nc4nc(-c5ccc(-c6ccccc6)cc5)cs4)c4ccccc4[N+](=O)[O-])c3C2=O)C(=O)N1 (centres unmarked) [d4E-3]
